In the kinase profiling compilation of Christmann-Franck et al. (2016):

Key:
Test in all cases: Caliper, Mobility shift assay off-chip
[1] = test system: FGFR3 (human), P22607 [K650E]
CSNK1G3 (human) = CSNK1G3 (human) (UniProt Q9Y6M4)
RPS6KA6 KD1 KD2 (human) = RPS6KA6 KD1 KD2 (human) (UniProt Q9UK32)
FRK (human) = FRK (human) (UniProt P42685)
DAPK1 (human) = DAPK1 (human) (UniProt P53355)
[2] = test system: EGFR (human), P00533 [T790M/L858R]
PIM3 (human) = PIM3 (human) (UniProt Q86V86)
[3] = test system: KIT (human), P10721 [T670I]
KIT (human), P10721 [T670I], sequence (P10721 whole entry T670I, looked up): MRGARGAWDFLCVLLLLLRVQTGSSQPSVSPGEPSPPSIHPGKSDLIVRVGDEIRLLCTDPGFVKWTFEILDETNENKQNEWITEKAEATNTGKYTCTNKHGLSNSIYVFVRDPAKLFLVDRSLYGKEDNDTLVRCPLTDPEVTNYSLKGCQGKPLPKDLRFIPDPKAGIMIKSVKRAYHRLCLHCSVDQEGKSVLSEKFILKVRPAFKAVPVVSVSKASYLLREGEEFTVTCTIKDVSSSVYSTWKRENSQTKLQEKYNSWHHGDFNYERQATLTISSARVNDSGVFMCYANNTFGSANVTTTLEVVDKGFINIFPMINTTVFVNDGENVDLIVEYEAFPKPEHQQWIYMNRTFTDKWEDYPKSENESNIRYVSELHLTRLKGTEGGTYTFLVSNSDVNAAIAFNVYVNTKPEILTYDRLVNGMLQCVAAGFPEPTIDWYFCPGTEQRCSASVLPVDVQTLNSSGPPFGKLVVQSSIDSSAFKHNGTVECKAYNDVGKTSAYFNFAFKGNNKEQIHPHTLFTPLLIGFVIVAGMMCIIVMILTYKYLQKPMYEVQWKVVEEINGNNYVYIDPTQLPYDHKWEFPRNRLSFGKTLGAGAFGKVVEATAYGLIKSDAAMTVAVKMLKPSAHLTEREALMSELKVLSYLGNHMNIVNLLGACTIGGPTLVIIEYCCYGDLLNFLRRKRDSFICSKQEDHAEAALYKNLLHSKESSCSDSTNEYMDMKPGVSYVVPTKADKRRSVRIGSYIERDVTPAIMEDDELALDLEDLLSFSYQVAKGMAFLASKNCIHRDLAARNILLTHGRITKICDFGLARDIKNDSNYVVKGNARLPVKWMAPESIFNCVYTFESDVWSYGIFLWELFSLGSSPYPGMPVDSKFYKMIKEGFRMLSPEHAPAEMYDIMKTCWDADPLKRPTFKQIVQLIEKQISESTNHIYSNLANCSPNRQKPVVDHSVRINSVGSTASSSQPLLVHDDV

DAPK3 (human) = DAPK3 (human) (UniProt O43293)
[4] = biological target: PRKAA2 PRKAB1 PRKAG1 (human) (UniProt Q9Y478+P54646+P54619)
MST1R (human) = MST1R (human) (UniProt Q04912)
DCLK1 (human) = DCLK1 (human) (UniProt O15075)
CSNK1G2 (human) = CSNK1G2 (human) (UniProt P78368)
CSNK1G2 (human), sequence (P78368 whole entry, looked up): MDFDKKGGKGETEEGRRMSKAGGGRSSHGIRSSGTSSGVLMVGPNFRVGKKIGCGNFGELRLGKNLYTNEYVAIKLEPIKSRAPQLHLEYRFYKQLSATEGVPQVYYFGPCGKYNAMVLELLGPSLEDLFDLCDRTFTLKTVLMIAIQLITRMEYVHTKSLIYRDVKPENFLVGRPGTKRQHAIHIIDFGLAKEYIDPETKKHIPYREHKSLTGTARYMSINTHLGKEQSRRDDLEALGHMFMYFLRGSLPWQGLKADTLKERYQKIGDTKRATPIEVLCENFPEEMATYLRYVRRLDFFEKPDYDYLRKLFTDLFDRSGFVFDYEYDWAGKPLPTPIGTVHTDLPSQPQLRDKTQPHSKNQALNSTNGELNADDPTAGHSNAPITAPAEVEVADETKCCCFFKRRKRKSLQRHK

MARK4 (human) = MARK4 (human) (UniProt Q96L34)
CAMK2A (human) = CAMK2A (human) (UniProt Q9UQM7)
CAMK2A (human), sequence (Q9UQM7 whole entry, looked up): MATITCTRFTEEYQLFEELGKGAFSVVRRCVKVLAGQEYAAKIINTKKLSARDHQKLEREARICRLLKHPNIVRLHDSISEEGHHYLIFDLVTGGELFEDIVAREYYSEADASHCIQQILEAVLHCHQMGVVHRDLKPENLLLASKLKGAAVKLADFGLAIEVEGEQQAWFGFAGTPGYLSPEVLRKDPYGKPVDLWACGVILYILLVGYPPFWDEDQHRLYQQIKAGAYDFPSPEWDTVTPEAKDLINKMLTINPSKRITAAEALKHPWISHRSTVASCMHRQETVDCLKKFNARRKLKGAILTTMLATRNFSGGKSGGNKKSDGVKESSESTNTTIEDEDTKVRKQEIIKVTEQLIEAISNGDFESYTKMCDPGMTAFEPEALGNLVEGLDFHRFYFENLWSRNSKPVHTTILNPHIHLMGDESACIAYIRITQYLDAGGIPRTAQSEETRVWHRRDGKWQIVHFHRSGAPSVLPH

[5] = test system: EGFR (human), P00533 [T790M]
CLK2 (human) = CLK2 (human) (UniProt P49760)
BLK (human) = BLK (human) (UniProt P51451)
HIPK1 (human) = HIPK1 (human) (UniProt Q86Z02)
DYRK3 (human) = DYRK3 (human) (UniProt O43781)
MELK (human) = MELK (human) (UniProt Q14680)
FGFR1 (human) = FGFR1 (human) (UniProt P11362)
ROS1 (human) = ROS1 (human) (UniProt P08922)
PASK (human) = PASK (human) (UniProt Q96RG2)
PASK (human), sequence (Q96RG2 whole entry, looked up): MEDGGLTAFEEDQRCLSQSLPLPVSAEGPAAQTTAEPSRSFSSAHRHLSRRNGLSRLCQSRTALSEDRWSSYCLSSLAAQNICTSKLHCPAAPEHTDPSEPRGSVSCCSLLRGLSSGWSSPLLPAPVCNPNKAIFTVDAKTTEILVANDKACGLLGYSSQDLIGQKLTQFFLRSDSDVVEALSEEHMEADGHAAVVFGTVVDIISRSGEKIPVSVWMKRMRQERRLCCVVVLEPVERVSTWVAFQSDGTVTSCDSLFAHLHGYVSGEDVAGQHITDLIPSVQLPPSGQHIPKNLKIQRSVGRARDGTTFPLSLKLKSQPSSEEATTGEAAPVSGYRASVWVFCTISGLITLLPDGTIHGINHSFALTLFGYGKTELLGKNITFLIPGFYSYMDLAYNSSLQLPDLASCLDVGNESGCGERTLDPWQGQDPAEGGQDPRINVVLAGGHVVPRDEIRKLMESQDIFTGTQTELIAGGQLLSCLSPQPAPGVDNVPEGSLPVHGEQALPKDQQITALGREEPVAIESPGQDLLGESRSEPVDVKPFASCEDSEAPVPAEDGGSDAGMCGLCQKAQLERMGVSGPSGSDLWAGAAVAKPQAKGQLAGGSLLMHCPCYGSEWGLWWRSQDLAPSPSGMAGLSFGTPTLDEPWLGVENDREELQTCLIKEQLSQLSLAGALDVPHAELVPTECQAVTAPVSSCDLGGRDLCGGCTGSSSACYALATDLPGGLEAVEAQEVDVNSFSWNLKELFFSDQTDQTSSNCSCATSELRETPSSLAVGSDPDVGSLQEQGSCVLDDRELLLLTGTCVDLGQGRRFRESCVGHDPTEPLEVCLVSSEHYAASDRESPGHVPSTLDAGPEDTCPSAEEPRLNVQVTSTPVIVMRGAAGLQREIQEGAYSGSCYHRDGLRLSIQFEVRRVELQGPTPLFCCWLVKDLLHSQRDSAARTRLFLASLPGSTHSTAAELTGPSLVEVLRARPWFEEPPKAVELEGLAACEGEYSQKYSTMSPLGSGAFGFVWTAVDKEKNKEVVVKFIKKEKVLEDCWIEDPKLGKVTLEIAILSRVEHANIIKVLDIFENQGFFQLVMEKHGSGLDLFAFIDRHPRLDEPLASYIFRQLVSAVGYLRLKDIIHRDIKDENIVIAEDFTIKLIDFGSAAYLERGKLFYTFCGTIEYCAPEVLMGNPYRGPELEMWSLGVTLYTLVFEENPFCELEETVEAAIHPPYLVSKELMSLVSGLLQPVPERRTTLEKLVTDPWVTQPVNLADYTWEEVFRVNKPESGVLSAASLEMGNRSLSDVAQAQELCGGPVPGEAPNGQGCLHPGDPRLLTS

PHKG2 (human) = PHKG2 (human) (UniProt P15735)
EPHA8 (human) = EPHA8 (human) (UniProt P29322)
AXL (human) = AXL (human) (UniProt P30530)
PHKG1 (human) = PHKG1 (human) (UniProt Q16816)
KIT (human) = KIT (human) (UniProt P10721)
KIT (human), sequence (P10721 whole entry, looked up): as the sequence (P10721 whole entry T670I, looked up) above, with I670T counted along it

YES1 (human) = YES1 (human) (UniProt P07947)
HIPK2 (human) = HIPK2 (human) (UniProt Q9H2X6)
HIPK2 (human), sequence (Q9H2X6 whole entry, looked up): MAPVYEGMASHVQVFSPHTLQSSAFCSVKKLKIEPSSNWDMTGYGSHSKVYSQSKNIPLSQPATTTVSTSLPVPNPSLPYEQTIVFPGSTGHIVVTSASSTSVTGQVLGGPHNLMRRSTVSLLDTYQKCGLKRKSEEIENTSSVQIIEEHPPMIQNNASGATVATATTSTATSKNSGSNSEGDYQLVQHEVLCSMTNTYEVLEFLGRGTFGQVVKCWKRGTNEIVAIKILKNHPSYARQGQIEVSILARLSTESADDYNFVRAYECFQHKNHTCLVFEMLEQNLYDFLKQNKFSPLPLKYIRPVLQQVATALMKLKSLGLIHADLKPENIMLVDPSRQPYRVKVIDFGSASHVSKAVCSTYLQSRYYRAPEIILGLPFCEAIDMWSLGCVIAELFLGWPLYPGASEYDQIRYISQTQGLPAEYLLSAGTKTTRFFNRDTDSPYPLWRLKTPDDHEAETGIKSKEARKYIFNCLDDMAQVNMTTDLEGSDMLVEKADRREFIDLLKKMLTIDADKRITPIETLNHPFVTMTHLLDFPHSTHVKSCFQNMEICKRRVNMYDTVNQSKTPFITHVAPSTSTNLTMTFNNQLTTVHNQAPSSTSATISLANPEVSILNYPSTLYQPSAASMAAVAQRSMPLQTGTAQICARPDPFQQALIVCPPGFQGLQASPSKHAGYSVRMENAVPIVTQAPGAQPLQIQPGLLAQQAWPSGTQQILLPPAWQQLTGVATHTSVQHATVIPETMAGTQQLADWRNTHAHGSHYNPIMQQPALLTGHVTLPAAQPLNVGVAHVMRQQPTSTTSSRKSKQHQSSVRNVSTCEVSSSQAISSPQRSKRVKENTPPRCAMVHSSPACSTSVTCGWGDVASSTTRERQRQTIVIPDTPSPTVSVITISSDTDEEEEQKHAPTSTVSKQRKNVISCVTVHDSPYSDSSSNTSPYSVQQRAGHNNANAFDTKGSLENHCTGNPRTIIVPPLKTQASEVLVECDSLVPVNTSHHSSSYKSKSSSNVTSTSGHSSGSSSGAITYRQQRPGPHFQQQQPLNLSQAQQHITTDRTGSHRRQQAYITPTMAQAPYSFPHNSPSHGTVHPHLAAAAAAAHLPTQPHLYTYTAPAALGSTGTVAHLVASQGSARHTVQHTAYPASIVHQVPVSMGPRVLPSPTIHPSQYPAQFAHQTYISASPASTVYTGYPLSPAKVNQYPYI

[6] = test system: PDGFRA (human), P16234 [V561D]
TYRO3 (human) = TYRO3 (human) (UniProt Q06418)

## Cn1cc(-c2cnc3ccc4ccc(CS(=O)(=O)NC5CCCCC5)cc4c(=O)c3c2)cn1
[1]; compound 0.01 µM
  inhibition: -2.1%
[1]; compound 0.1 µM
  inhibition: 5.1%
CSNK1G3 (human); compound 0.01 µM
  inhibition: 0.7%
CSNK1G3 (human); compound 0.1 µM
  inhibition: -0.7%
RPS6KA6 KD1 KD2 (human); compound 0.01 µM
  inhibition: 5.8%
RPS6KA6 KD1 KD2 (human); compound 0.1 µM
  inhibition: 3.2%
FRK (human); compound 0.01 µM
  inhibition: 0.2%
FRK (human); compound 0.1 µM
  inhibition: 3.2%
DAPK1 (human); compound 0.01 µM
  inhibition: 13.1%
DAPK1 (human); compound 0.1 µM
  inhibition: 0.1%
[2]; compound 0.01 µM
  inhibition: 1.8%
[2]; compound 0.1 µM
  inhibition: -0.4%
PIM3 (human); compound 0.01 µM
  inhibition: 7%
PIM3 (human); compound 0.1 µM
  inhibition: 4.6%
[3]; compound 0.01 µM
  inhibition: 1.3%
[3]; compound 0.1 µM
  inhibition: -4.9%
DAPK3 (human); compound 0.01 µM
  inhibition: -1.6%
DAPK3 (human); compound 0.1 µM
  inhibition: 0.3%
[4]; compound 0.01 µM
  inhibition: 2.9%
[4]; compound 0.1 µM
  inhibition: -0.1%
MST1R (human); compound 0.01 µM
  inhibition: 11.8%
MST1R (human); compound 0.1 µM
  inhibition: 37.6%
DCLK1 (human); compound 0.01 µM
  inhibition: 5.9%
DCLK1 (human); compound 0.1 µM
  inhibition: 12%
CSNK1G2 (human); compound 0.01 µM
  inhibition: 4.3%
CSNK1G2 (human); compound 0.1 µM
  inhibition: 1.3%
MARK4 (human); compound 0.01 µM
  inhibition: 7.1%
MARK4 (human); compound 0.1 µM
  inhibition: 2.2%
CAMK2A (human); compound 0.01 µM
  inhibition: -12.3%
CAMK2A (human); compound 0.1 µM
  inhibition: -3.8%
[5]; compound 0.01 µM
  inhibition: -4.4%
[5]; compound 0.1 µM
  inhibition: -7.2%
CLK2 (human); compound 0.01 µM
  inhibition: -6.3%
CLK2 (human); compound 0.1 µM
  inhibition: -5.2%
BLK (human); compound 0.01 µM
  inhibition: 0.8%
BLK (human); compound 0.1 µM
  inhibition: 15.8%
HIPK1 (human); compound 0.01 µM
  inhibition: 1.9%
HIPK1 (human); compound 0.1 µM
  inhibition: 4.6%
DYRK3 (human); compound 0.01 µM
  inhibition: 1.8%
DYRK3 (human); compound 0.1 µM
  inhibition: 19.6%
MELK (human); compound 0.01 µM
  inhibition: 1.7%
MELK (human); compound 0.1 µM
  inhibition: -0.5%
FGFR1 (human); compound 0.01 µM
  inhibition: 6.8%
FGFR1 (human); compound 0.1 µM
  inhibition: 2.8%
ROS1 (human); compound 0.01 µM
  inhibition: 21.2%
ROS1 (human); compound 0.1 µM
  inhibition: 6.6%
PASK (human); compound 0.01 µM
  inhibition: 1.5%
PASK (human); compound 0.1 µM
  inhibition: 18.4%
PHKG2 (human); compound 0.01 µM
  inhibition: 3.4%
PHKG2 (human); compound 0.1 µM
  inhibition: 13.3%
EPHA8 (human); compound 0.01 µM
  inhibition: 15.6%
EPHA8 (human); compound 0.1 µM
  inhibition: 0.3%
AXL (human); compound 0.01 µM
  inhibition: -2.8%
AXL (human); compound 0.1 µM
  inhibition: 11.7%
PHKG1 (human); compound 0.01 µM
  inhibition: 6.4%
PHKG1 (human); compound 0.1 µM
  inhibition: 14.9%
KIT (human); compound 0.01 µM
  inhibition: -3.5%
KIT (human); compound 0.1 µM
  inhibition: 13.6%
YES1 (human); compound 0.01 µM
  inhibition: -1.4%
YES1 (human); compound 0.1 µM
  inhibition: -1.7%
HIPK2 (human); compound 0.01 µM
  inhibition: -0.3%
HIPK2 (human); compound 0.1 µM
  inhibition: 7%
[6]; compound 0.01 µM
  inhibition: 4.1%
[6]; compound 0.1 µM
  inhibition: 19.6%
TYRO3 (human); compound 0.01 µM
  inhibition: -1.1%
TYRO3 (human); compound 0.1 µM
  inhibition: 9.2%

## O=C(CCc1ccc2ccc3ncc(C4CCNCC4)cc3c(=O)c2c1)NCc1ccccn1
[1]; compound 0.1 µM
  inhibition: -1.7%
[1]; compound 1.0 µM
  inhibition: 2.1%
CSNK1G3 (human); compound 0.1 µM
  inhibition: 0.3%
CSNK1G3 (human); compound 1.0 µM
  inhibition: 15.2%
RPS6KA6 KD1 KD2 (human); compound 0.1 µM
  inhibition: 5.9%
RPS6KA6 KD1 KD2 (human); compound 1.0 µM
  inhibition: -8.4%
FRK (human); compound 0.1 µM
  inhibition: 7.1%
FRK (human); compound 1.0 µM
  inhibition: 6.2%
DAPK1 (human); compound 0.1 µM
  inhibition: 2.4%
DAPK1 (human); compound 1.0 µM
  inhibition: 0.1%
[2]; compound 0.1 µM
  inhibition: -0.8%
[2]; compound 1.0 µM
  inhibition: -3.6%
PIM3 (human); compound 0.1 µM
  inhibition: -3.4%
PIM3 (human); compound 1.0 µM
  inhibition: 0.3%
[3]; compound 0.1 µM
  inhibition: -3.3%
[3]; compound 1.0 µM
  inhibition: -4.9%
DAPK3 (human); compound 0.1 µM
  inhibition: -1.7%
DAPK3 (human); compound 1.0 µM
  inhibition: -4.5%
[4]; compound 0.1 µM
  inhibition: 5.1%
[4]; compound 1.0 µM
  inhibition: -1.5%
MST1R (human); compound 0.1 µM
  inhibition: -3.6%
MST1R (human); compound 1.0 µM
  inhibition: 20.5%
DCLK1 (human); compound 0.1 µM
  inhibition: -26.1%
DCLK1 (human); compound 1.0 µM
  inhibition: -5.4%
CSNK1G2 (human); compound 0.1 µM
  inhibition: 2.7%
CSNK1G2 (human); compound 1.0 µM
  inhibition: 5.8%
MARK4 (human); compound 0.1 µM
  inhibition: 0%
MARK4 (human); compound 1.0 µM
  inhibition: -3.4%
CAMK2A (human); compound 0.1 µM
  inhibition: -8.9%
CAMK2A (human); compound 1.0 µM
  inhibition: -3.1%
[5]; compound 0.1 µM
  inhibition: 1.6%
[5]; compound 1.0 µM
  inhibition: -11.1%
CLK2 (human); compound 0.1 µM
  inhibition: 3.4%
CLK2 (human); compound 1.0 µM
  inhibition: 4.1%
BLK (human); compound 0.1 µM
  inhibition: -0.5%
BLK (human); compound 1.0 µM
  inhibition: 16.6%
HIPK1 (human); compound 0.1 µM
  inhibition: 7.2%
HIPK1 (human); compound 1.0 µM
  inhibition: -0.1%
DYRK3 (human); compound 0.1 µM
  inhibition: -1.4%
DYRK3 (human); compound 1.0 µM
  inhibition: 2.9%
MELK (human); compound 0.1 µM
  inhibition: 2.7%
MELK (human); compound 1.0 µM
  inhibition: 5.7%
FGFR1 (human); compound 0.1 µM
  inhibition: 1.5%
FGFR1 (human); compound 1.0 µM
  inhibition: -7.9%
ROS1 (human); compound 0.1 µM
  inhibition: 5.1%
ROS1 (human); compound 1.0 µM
  inhibition: -12.4%
PASK (human); compound 0.1 µM
  inhibition: 6.7%
PASK (human); compound 1.0 µM
  inhibition: 3.2%
PHKG2 (human); compound 0.1 µM
  inhibition: 1%
PHKG2 (human); compound 1.0 µM
  inhibition: -4.4%
EPHA8 (human); compound 0.1 µM
  inhibition: 9.4%
EPHA8 (human); compound 1.0 µM
  inhibition: 5.1%
AXL (human); compound 0.1 µM
  inhibition: 6.1%
AXL (human); compound 1.0 µM
  inhibition: 20.3%
PHKG1 (human); compound 0.1 µM
  inhibition: 7.9%
PHKG1 (human); compound 1.0 µM
  inhibition: 1.2%
KIT (human); compound 0.1 µM
  inhibition: -1.6%
KIT (human); compound 1.0 µM
  inhibition: 6.6%
YES1 (human); compound 0.1 µM
  inhibition: -0.7%
YES1 (human); compound 1.0 µM
  inhibition: -5.3%
HIPK2 (human); compound 0.1 µM
  inhibition: 3.6%
HIPK2 (human); compound 1.0 µM
  inhibition: 3.9%
[6]; compound 0.1 µM
  inhibition: -12.5%
[6]; compound 1.0 µM
  inhibition: 21.5%
TYRO3 (human); compound 0.1 µM
  inhibition: 4.1%
TYRO3 (human); compound 1.0 µM
  inhibition: 4.2%

## O=c1c2cc(CS(=O)(=O)NCc3ccccn3)ccc2ccc2ncc(C3CCNCC3)cc12
FGFR1 (human); compound 0.01 µM
  inhibition: 3.8%
FGFR1 (human); compound 0.1 µM
  inhibition: 10.7%

## Cn1cc(-c2cnc3ccc4ccc(CS(=O)(=O)CCc5ccccn5)cc4c(=O)c3c2)cn1
FGFR1 (human); compound 0.1 µM
  inhibition: 12.3%
FGFR1 (human); compound 1.0 µM
  inhibition: 61.2%
